Source: patent US11980636B2, “Treatment of hematological disorders” (Jazz Pharmaceuticals Ireland Limited, priority 2020, dated 2024)
Read-outs that look alike come from different tables or passages of the source.

Legend:
CCRF-CEM cells = experiment: CellTiter-Glo cell viability, 72 hours; assay type: cell-based; conditions: Homo sapiens, read-out: IC50 values
Method: (§1) AML cell lines used were: HL-60 (ATCC), SKM-1 (Sekisui XenoTech) and KG-1 (ATCC). Acute Lymphoid Leukemia (ALL) cell lines used were: CCRF-CEM (ATCC), MOLT-3 (ATCC), and Jurkat E6-1 (ATCC). […] After 24 hours, cells were dosed with CPX-351, venetoclax, azacitidine, decitabine, and/or cytarabine. CPX-351 and cytarabine were each dosed in a titration starting at 50 μM (for CPX-351, this was measured by its cytarabine content), with 8 additional serial dilutions of 5× each and a final group with no treatment. […] For the combination treatment of CPX-351 and venetoclax, the same titrations were used as in single-agent treatment. About 72 hours after dosing, cell viability was measured by CellTiter-Glo assay (Promega) according to manufacturer instructions; luminescence was measured and IC50 values were estimated by Cytation Multi-Mode reader (BioTek).

HL-60 cells = experiment: CellTiter-Glo cell viability, 72 hours; assay type: cell-based; conditions: Homo sapiens
Method: as §1

Jurkat E6-1 cells = experiment: CellTiter-Glo cell viability, 72 hours; assay type: cell-based; conditions: Homo sapiens
Method: as §1

KG-1 cells = experiment: CellTiter-Glo cell viability, 72 hours; assay type: cell-based; conditions: Homo sapiens
Method: as §1

MOLT-3 cells = experiment: CellTiter-Glo cell viability, 72 hours; assay type: cell-based; conditions: Homo sapiens
Method: as §1

SKM-1 cells = experiment: CellTiter-Glo cell viability, 72 hours; assay type: cell-based; conditions: Homo sapiens
Method: as §1

[1] = for Vp (Vp2), peripheral volume of distribution: population mean coefficient at BSA 1.95 (daunorubicin dose 86 mg), following CPX-351; for CLd (CLd2), distribution clearance: population mean coefficient at BSA 1.95, following CPX-351
clinical = conditions: human, in vivo, intravenous; for Vd: 195 mg
GCSF receptor = target: T1, GCSF receptor (Homo sapiens, UniProt Q99062); conditions: population mean, cited from earlier work; for Kd: read-out: KD, equilibrium dissociation constant for GCSF and GCSF receptor
T1 sequence (Q99062 25-836): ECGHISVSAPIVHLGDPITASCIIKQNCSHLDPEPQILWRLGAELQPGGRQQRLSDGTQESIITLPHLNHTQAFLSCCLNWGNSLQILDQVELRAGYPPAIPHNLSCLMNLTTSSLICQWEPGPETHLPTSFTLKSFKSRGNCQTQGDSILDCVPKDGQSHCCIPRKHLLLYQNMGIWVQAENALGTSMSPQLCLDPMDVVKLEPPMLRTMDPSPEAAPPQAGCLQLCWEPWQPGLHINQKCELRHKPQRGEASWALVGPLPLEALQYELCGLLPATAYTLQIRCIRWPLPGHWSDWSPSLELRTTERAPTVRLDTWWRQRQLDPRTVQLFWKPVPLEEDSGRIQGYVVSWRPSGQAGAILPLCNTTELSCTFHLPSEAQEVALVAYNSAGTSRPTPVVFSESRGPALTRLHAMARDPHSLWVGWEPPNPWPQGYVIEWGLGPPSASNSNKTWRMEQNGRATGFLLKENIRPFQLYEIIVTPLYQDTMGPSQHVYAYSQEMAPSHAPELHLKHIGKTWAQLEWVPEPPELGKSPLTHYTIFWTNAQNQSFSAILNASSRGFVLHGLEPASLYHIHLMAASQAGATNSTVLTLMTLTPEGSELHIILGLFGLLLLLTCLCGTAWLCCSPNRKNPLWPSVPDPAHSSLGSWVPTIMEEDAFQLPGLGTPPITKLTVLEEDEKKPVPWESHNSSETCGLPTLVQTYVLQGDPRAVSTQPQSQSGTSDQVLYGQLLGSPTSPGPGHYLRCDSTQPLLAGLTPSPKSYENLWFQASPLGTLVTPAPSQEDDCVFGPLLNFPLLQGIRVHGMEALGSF

[2] = in vivo; cited from earlier work
[3] = ALL, CPX-351 by cytarabine content
[4] = HL-60, HL60, AML, CPX-351 by cytarabine content, read-out: IC50 values
[5] = Jurkat E6-1, ALL, CPX-351 by cytarabine content, read-out: IC50 values
[6] = KG-1, AML, CPX-351 by cytarabine content, read-out: IC50 values
[7] = MOLT-3, ALL, CPX-351 by cytarabine content, read-out: IC50 values
[8] = SKM-1, AML, CPX-351 by cytarabine content, read-out: IC50 values

Molecule: Nc1ncn([C@@H]2O[C@H](CO)[C@@H](O)[C@H]2O)c(=O)n1 [Azacitidine]
- IC50 (CCRF-CEM cells; [3]): 1580 nM
- IC50 (HL-60 cells; [4]): 1420 nM
- IC50 (Jurkat E6-1 cells; [5]): 980 nM
- IC50 (KG-1 cells; [6]): 4000 nM
- IC50 (MOLT-3 cells; [7]): 4030 nM
- IC50 (SKM-1 cells; [8]): 420 nM

Molecule: Nc1ccn([C@@H]2O[C@H](CO)[C@@H](O)[C@@H]2O)c(=O)n1 [Cytarabine, 1-β-D-arabinofuranosylcytosine]
- IC50 (CCRF-CEM cells; [3]): 30 nM
- IC50 (HL-60 cells; [4]): 850 nM
- IC50 (Jurkat E6-1 cells; [5]): 40 nM
- IC50 (KG-1 cells; [6]): 240 nM
- IC50 (MOLT-3 cells; [7]): 80 nM
- IC50 (SKM-1 cells; [8]): 540 nM
- Vp (Vp2), peripheral volume of distribution [1]: 0.214 · (BSA/1.95)^1 L
- CLd (CLd2), distribution clearance [1]: 0.00646 · (BSA/1.95)^1 L/h
- clearance (clinical): 1.77 mL/min
- Vd (clinical): 5.12 L

Molecule: COc1cccc2c1C(=O)c1c(O)c3c(c(O)c1C2=O)C[C@@](O)(C(C)=O)C[C@@H]3O[C@H]1C[C@H](N)[C@H](O)[C@H](C)O1 [Daunorubicin]
- Vp (Vp2), peripheral volume of distribution [1]: 0.523 · (BSA/1.95)^1 · L
- CLd (CLd2), distribution clearance [1]: 0.0258 · (BSA/1.95)^1 L/h
- clearance (clinical): 2.42 mL/min
- Vd (clinical): 4.34 L

Molecule: Nc1ncn([C@H]2C[C@H](O)[C@@H](CO)O2)c(=O)n1 [Decitabine]
- IC50 (CCRF-CEM cells): 40 nM
- IC50 (HL-60 cells; HL-60, read-out: IC50 values): 820 nM
- IC50 (Jurkat E6-1 cells; Jurkat E6.1, read-out: IC50 values): 100 nM
- IC50 (KG-1 cells; KG-1, read-out: IC50 values): 360 nM
- IC50 (MOLT-3 cells; MOLT-3, read-out: IC50 values): 230 nM
- IC50 (SKM-1 cells; SKM-1, read-out: IC50 values): 240 nM

Molecule: CC1(C)CCC(CN2CCN(c3ccc(C(=O)NS(=O)(=O)c4ccc(NCC5CCOCC5)c([N+](=O)[O-])c4)c(Oc4cnc5[nH]ccc5c4)c3)CC2)=C(c2ccc(Cl)cc2)C1 [Venetoclax]
- IC50 (CCRF-CEM cells; [3]): 2800 nM
- IC50 (HL-60 cells; [4]): 50 nM
- IC50 (Jurkat E6-1 cells; [5]): 3500 nM
- IC50 (KG-1 cells; [6]): 2100 nM
- IC50 (MOLT-3 cells; [7]): 1000 nM
- IC50 (SKM-1 cells; [8]): 1500 nM

B1: Filgrastim: exogenous GCSF agent (protein, UniProt P09919 31-207, looked up)
Granulocyte …: TPLGPASSLPQSFLLKCLEQVRKIQGDGAALQEKLVSECATYKLCHPEELVLLGHSLGIPWAPLSSCPSQALQLAGCLSQLHSGLFLYQGLLQALEGISPELGPTLDTLQLDVADFATTIWQQMEELGMAPALQPTQGAMPAFASAFQRRAGGVLVASHLQSFLEVSYRVLRHLAQP
modifications: filgrastim, N-terminal Met
notes: exogenous GCSF agent
- kint, first-order rate constant for internalization of GCSF receptor complexed with filgrastim or pegfilgrastim (GCSF receptor): 0.113 h⁻¹
- Kd (GCSF receptor): 0.0237 nM
- CL, clearance [2]: 0.833 · (WTKG/70)^0.641 L/h
- D2, duration of the zero-order absorption process [2]: 6.6 h
- F1, bioavailability of first-order absorption process [2]: 0.105
- F2, bioavailability of zero-order absorption process [2]: 0.586
- Vc, central volume of distribution [2]: 3.12 · (WTKG/70)^0.943 L
- ka, first-order absorption rate constant [2]: 0.403 h⁻¹

B2: Pegfilgrastim: exogenous GCSF agent (protein, UniProt P09919 31-207, looked up)
Granulocyte …: TPLGPASSLPQSFLLKCLEQVRKIQGDGAALQEKLVSECATYKLCHPEELVLLGHSLGIPWAPLSSCPSQALQLAGCLSQLHSGLFLYQGLLQALEGISPELGPTLDTLQLDVADFATTIWQQMEELGMAPALQPTQGAMPAFASAFQRRAGGVLVASHLQSFLEVSYRVLRHLAQP
modifications: pegfilgrastim; PEGylated, N-terminal Met
notes: exogenous GCSF agent
- kint, first-order rate constant for internalization of GCSF receptor complexed with filgrastim or pegfilgrastim (GCSF receptor): 0.113 h⁻¹
- Kd (GCSF receptor): 0.0959 nM
- F1, bioavailability of first-order absorption process [2]: 0.646
- Vc, central volume of distribution [2]: 5.76 · (WTKG/70)^0.943 L
- clearance [2]: 6.03 mL/min
- ka, first-order absorption rate constant [2]: 0.0188 h⁻¹
